Results taken from publication PMC6271825, “Synthesis and Cytotoxic Activity Evaluation of Novel Arylpiperazine Derivatives on Human Prostate Cancer Cell Lines” (Molecules, 2014).
Counter-ions that a name gives are not always drawn.

Row | SMILES | melting point
1 | FC(F)(F)c1ccc(N2CCN(CCc3ccc(COc4ccc5c(c4)OCO5)cc3)CC2)cc1 (as salt: HCl) [Compound 26, 1-(2-(4-((Benzo[d][1,3]dioxol-5-yloxy)methyl)phenyl)ethyl)-4-(4-(trifluoromethyl)phenyl)piperazine] | 176 to 177 °C
2 | COc1ccc(Cl)cc1N1CCN(CCc2ccc(COc3ccc4c(c3)OCO4)cc2)CC1 (as salt: HCl) [Compound 23, 1-(2-(4-((Benzo[d][1,3]dioxol-5-yloxy)methyl)phenyl)ethyl)-4-(5-chloro-2-methoxyphenyl)piperazine] | 177 to 178 °C
3 | c1ccc(C2CCN(CCc3ccc(COc4ccc5c(c4)OCO5)cc3)CC2)cc1 (as salt: HCl) [Compound 28, 1-(2-(4-((Benzo[d][1,3]dioxol-5-yloxy)methyl)phenyl)ethyl)-4-phenylpiperidine] | 183 to 184 °C
4 | Brc1ccc(N2CCN(CCc3ccc(COc4ccc5c(c4)OCO5)cc3)CC2)cc1 (as salt: HCl) [Compound 24, 1-(2-(4-((Benzo[d][1,3]dioxol-5-yloxy)methyl)phenyl)ethyl)-4-(4-bromophenyl)piperazine] | 173 to 174 °C
5 | c1ccc(N2CCN(CCc3ccc(COc4ccc5c(c4)OCO5)cc3)CC2)nc1 (as salt: HCl) [Compound 7, 1-(2-(4-((Benzo[d][1,3]dioxol-5-yloxy)methyl)phenyl)ethyl)-4-(pyridin-2-yl)piperazine] | 185 to 186 °C
6 | Fc1ccccc1N1CCN(CCc2ccc(COc3ccc4c(c3)OCO4)cc2)CC1 (as salt: HCl) [Compound 15, 1-(2-(4-((Benzo[d][1,3]dioxol-5-yloxy)methyl)phenyl)ethyl)-4-(2-fluorophenyl)piperazine] | 187 to 188 °C
7 | Clc1cccc(N2CCN(CCc3ccc(COc4ccc5c(c4)OCO5)cc3)CC2)c1 (as salt: HCl) [Compound 21, 1-(2-(4-((Benzo[d][1,3]dioxol-5-yloxy)methyl)phenyl)ethyl)-4-(3-chlorophenyl)piperazine] | 177 to 178 °C
8 | COc1ccc(N2CCN(CCc3ccc(COc4ccc5c(c4)OCO5)cc3)CC2)cc1 (as salt: HCl) [Compound 13, 1-(2-(4-((Benzo[d][1,3]dioxol-5-yloxy)methyl)phenyl)ethyl)-4-(4-methoxyphenyl)piperazine] | 174 to 175 °C
9 | FC(F)(F)c1ccccc1N1CCN(CCc2ccc(COc3ccc4c(c3)OCO4)cc2)CC1 (as salt: HCl) [Compound 25, 1-(2-(4-((Benzo[d][1,3]dioxol-5-yloxy)methyl)phenyl)ethyl)-4-(2-(trifluoromethyl)phenyl)piperazine] | 171 to 172 °C
10 | Cc1ccccc1N1CCN(CCc2ccc(COc3ccc4c(c3)OCO4)cc2)CC1 (as salt: HCl) [Compound 9, 1-(2-(4-((Benzo[d][1,3]dioxol-5-yloxy)methyl)phenyl)ethyl)-4-o-tolylpiperazine] | 202 to 203 °C
11 | c1ccc(CN2CCN(CCc3ccc(COc4ccc5c(c4)OCO5)cc3)CC2)cc1 (as salt: HCl) [Compound 6, 1-(2-(4-((Benzo[d][1,3]dioxol-5-yloxy)methyl)phenyl)ethyl)-4-benzylpiperazine] | 177 to 178 °C
12 | Cc1ccc(N2CCN(CCc3ccc(COc4ccc5c(c4)OCO5)cc3)CC2)cc1 (as salt: HCl) [Compound 10, 1-(2-(4-((Benzo[d][1,3]dioxol-5-yloxy)methyl)phenyl)ethyl)-4-p-tolylpiperazine] | 184 to 185 °C
13 | Fc1ccc(N2CCN(CCc3ccc(COc4ccc5c(c4)OCO5)cc3)CC2)cc1 (as salt: HCl) [Compound 16, 1-(2-(4-((Benzo[d][1,3]dioxol-5-yloxy)methyl)phenyl)ethyl)-4-(4-fluorophenyl)piperazine] | 196 to 197 °C
14 | COc1ccccc1N1CCN(CCc2ccc(COc3ccc4c(c3)OCO4)cc2)CC1 (as salt: HCl) [Compound 12, 1-(2-(4-((Benzo[d][1,3]dioxol-5-yloxy)methyl)phenyl)ethyl)-4-(2-methoxyphenyl)piperazine] | 173 to 174 °C
15 | c1cnc(N2CCN(CCc3ccc(COc4ccc5c(c4)OCO5)cc3)CC2)nc1 (as salt: HCl) [Compound 8, 2-(4-(2-(4-((Benzo[d][1,3]dioxol-5-yloxy)methyl)phenyl)ethyl)piperazin-1-yl)pyrimidine] | 181 to 182 °C
16 | Clc1ccccc1N1CCN(CCc2ccc(COc3ccc4c(c3)OCO4)cc2)CC1 (as salt: HCl) [Compound 19, 1-(2-(4-((Benzo[d][1,3]dioxol-5-yloxy)methyl)phenyl)ethyl)-4-(2-chlorophenyl)piperazine] | 176 to 177 °C
17 | Fc1ccc(N2CCN(CCc3ccc(COc4ccc5c(c4)OCO5)cc3)CC2)c(F)c1 (as salt: HCl) [Compound 17, 1-(2-(4-((Benzo[d][1,3]dioxol-5-yloxy)methyl)phenyl)ethyl)-4-(2,4-difluorophenyl)piperazine] | 169 to 170 °C
18 | Clc1cccc(N2CCN(CCc3ccc(COc4ccc5c(c4)OCO5)cc3)CC2)c1Cl (as salt: HCl) [Compound 22, 1-(2-(4-((Benzo[d][1,3]dioxol-5-yloxy)methyl)phenyl)ethyl)-4-(2,3-dichlorophenyl)piperazine] | 177 to 178 °C
19 | Clc1ccc(N2CCN(CCc3ccc(COc4ccc5c(c4)OCO5)cc3)CC2)cc1 (as salt: HCl) [Compound 20, 1-(2-(4-((Benzo[d][1,3]dioxol-5-yloxy)methyl)phenyl)ethyl)-4-(4-chlorophenyl)piperazine] | 164 to 165 °C
20 | COc1cccc(N2CCN(CCc3ccc(COc4ccc5c(c4)OCO5)cc3)CC2)c1 (as salt: HCl) [Compound 14, 1-(2-(4-((Benzo[d][1,3]dioxol-5-yloxy)methyl)phenyl)ethyl)-4-(3-methoxyphenyl)piperazine] | 171 to 172 °C
21 | Cc1cccc(N2CCN(CCc3ccc(COc4ccc5c(c4)OCO5)cc3)CC2)c1 (as salt: HCl) [Compound 11, 1-(2-(4-((Benzo[d][1,3]dioxol-5-yloxy)methyl)phenyl)ethyl)-4-m-tolylpiperazine] | 171 to 172 °C
22 | c1ccc(N2CCN(CCc3ccc(COc4ccc5c(c4)OCO5)cc3)CC2)cc1 (as salt: HCl) [Compound 5, 1-(2-(4-((Benzo[d][1,3]dioxol-5-yloxy)methyl)phenyl)ethyl)-4-phenylpiperazine] | 195 to 196 °C
23 | OC1(c2ccccc2)CCN(CCc2ccc(COc3ccc4c(c3)OCO4)cc2)CC1 (as salt: HCl) [Compound 29, 1-(2-(4-((Benzo[d][1,3]dioxol-5-yloxy)methyl)phenyl)ethyl)-4-phenylpiperidin-4-ol] | 194 to 195 °C
24 | CC(=O)c1ccc(N2CCN(CCc3ccc(COc4ccc5c(c4)OCO5)cc3)CC2)cc1 (as salt: HCl) [Compound 27, 1-(4-(4-(2-(4-((Benzo[d][1,3]dioxol-5-yloxy)methyl)phenyl)ethyl)piperazin-1-yl)phenyl)ethanone] | 183 to 184 °C
25 | N#Cc1ccc(N2CCN(CCc3ccc(COc4ccc5c(c4)OCO5)cc3)CC2)c(F)c1 (as salt: HCl) [Compound 18, 4-(4-(2-(4-((Benzo[d][1,3]dioxol-5-yloxy)methyl)phenyl)ethyl)piperazin-1-yl)-3-fluorobenzonitrile] | 182 to 183 °C
